Like-named read-outs stand apart in the source and are kept apart here.
Columns and labels:
Candida albicans = test: Protective effect against Candida albicans infection in mice; format: in vivo, Crj:CDF1 mice; conditions: 168 h, minimum lethal dose of Candida albicans iv, drug once immediately after infection, survival 7 days after infection
Excerpt: Test Method: Five-week old Crj:CDF1 mice were inoculated with the minimum lethal dose of Candida albicans intravenously. The test drug was given once immediately after infection. The effectiveness of the drug was expressed in ED50 values calculated by the Reed and Muench method from the survival rate 7 days after infection.

[1] = system: Aspergillus niger IFO 4066; test: Paper disc agar diffusion, growth inhibition zone, Aspergillus niger IFO 4066; format: cell-based; conditions: IFO4066, 48 h, Table 4, medium A, 28° C., two days, 1000 μ/ml, 8 mm disc, read-out: Diameter of growth inhibition zone
Procedure: (§1) Evaluation of the antifungal activities of the compound of formula (I) was conducted by the following method: a sheet of filter paper disc (manufactured by Toyo Seisakusho, 8 mm in diameter) soaked in a […] solution of a compound of formula (I) in methanol was placed on an agar plate containing various fungi, which was incubated at 28° C. for two days, and the diameter of the growth inhibition zone around the filter paper disc was measured. The following culture media were used: A: yeast nitrogen base agar medium (pH 7.0) B: Sabouraud agar medium

[2] = system: Aspergillus fumigatus IFO 6344; test: Paper disc agar diffusion, growth inhibition zone, Aspergillus fumigatus IFO 6344; format: cell-based; conditions: IFO6344, 48 h, Table 4, medium A, 28° C., two days, 1000 μ/ml, 8 mm disc, read-out: Diameter of growth inhibition zone
Procedure: as §1

[3] = system: Trichophyton rubrum IFO 6467; test: Paper disc agar diffusion, growth inhibition zone, Trichophyton rubrum IFO 6467; format: cell-based; conditions: IFO6467, 48 h, Table 4, medium B (Sabouraud agar), 28° C., two days, 1000 μ/ml, 8 mm disc, read-out: Diameter of growth inhibition zone
Procedure: as §1

[4] = system: Candida albicans IFO 0583; test: Paper disc agar diffusion, growth inhibition zone, Candida albicans IFO 0583; format: cell-based; conditions: 28° C., 8 mm disc
Procedure: as §1
cpd. No. (Medium A, 28° C., two-day culture)

[5] = system: Trichophyton mentagrophytes IFO 7522; test: Paper disc agar diffusion, growth inhibition zone, Trichophyton mentagrophytes IFO 7522; format: cell-based; conditions: IFO7522, 48 h, Table 4, medium B (Sabouraud agar), 28° C., two days, 1000 μ/ml, 8 mm disc, read-out: Diameter of growth inhibition zone
Procedure: as §1

[6] = system: Microsporum gypseum IFO 6075; test: Paper disc agar diffusion, growth inhibition zone, Microsporum gypseum IFO 6075; format: cell-based; conditions: Nannizzia gypsea, IFO6075, 48 h; Table 4; medium B (Sabouraud agar), 28° C., two days, 1000 μ/ml, 8 mm disc; read-out: Diameter of growth inhibition zone
Procedure: as §1

[7] = system: Cryptococcus neoformans IFO 0410; test: Paper disc agar diffusion, growth inhibition zone, Cryptococcus neoformans IFO 0410; format: cell-based; conditions: IFO0410, 48 h, Table 4, medium A, 28° C., two days, 1000 μ/ml, 8 mm disc, read-out: Diameter of growth inhibition zone
Procedure: as §1

Candida utilis IFO 0619 = test: Paper disc agar diffusion, growth inhibition zone, Candida utilis IFO 0619; format: cell-based; conditions: Williopsis jadinii, IFO0619, 48 h; Table 4; medium A, 28° C., two days, 1000 μ/ml, 8 mm disc; read-out: Diameter of growth inhibition zone
Procedure: as §1

[8] = 48 h, pH 7, Table 4, medium A (yeast nitrogen base agar, pH 7.0), two days, 1000 μ/ml in methanol, read-out: Diameter of growth inhibition zone
[9] = Candida albicans, IFO0583, 48 h, Table 5, Medium A, two-day culture, 1000 μ/ml, read-out: Diameter of growth-inhibition zone

Q: For `C[C@H]([C@](O)(Cn1cncn1)c1ccc(F)cc1F)S(=O)(=O)N(C)C` [Compound 2, N,N-dimethyl-[(2R,3R)-3-(2,4-difluorophenyl)-3-hydroxy-4-(1H-1,2,4-triazol-1-yl) -2-butane]sulfonamide], which ED50 (Candida albicans; po) is on record?
A: Its ED50 is 5 mg/kg.

Q: And the ED50 (Candida albicans; sc)?
A: The ED50 was 5 mg/kg.

Q: What about the zone of inhibition at 1000 µg/mL [1] of the same compound?
A: The zone of inhibition at 1000 µg/mL was 25 mm.

Q: And the zone of inhibition at 1000 µg/mL [2]?
A: The zone of inhibition at 1000 µg/mL was 25 mm.

Q: And the zone of inhibition at 1000 µg/mL [3]?
A: The zone of inhibition at 1000 µg/mL was 35 mm.

Q: What about the zone of inhibition at 1000 µg/mL [4, 8] of the same compound?
A: Its zone of inhibition at 1000 µg/mL is 25 mm.

Q: What about the zone of inhibition at 1000 µg/mL [5] of the same compound?
A: The zone of inhibition at 1000 µg/mL was 25 mm.

Q: What about the zone of inhibition at 1000 µg/mL [6] of the same compound?
A: Its zone of inhibition at 1000 µg/mL is 22 mm.

Q: What about the zone of inhibition at 1000 µg/mL [7] of the same compound?
A: Its zone of inhibition at 1000 µg/mL is 38 mm.

Q: What about the zone of inhibition at 1000 µg/mL (Candida utilis IFO 0619) of the same compound?
A: Its zone of inhibition at 1000 µg/mL is 36 mm.

Q: What does the source list for `C[C@@H](SNc1ccc(Br)cc1)[C@](O)(Cn1cncn1)c1ccc(F)cc1F` [Compound 21, N-(4-bromophenyl)-[(2R,3R)-3-(2,4-difluorophenyl)-3-hydroxy-4-(1H-1,2,4-triazol-1-yl)-2butane]sulfenamide]?
A: zone of inhibition at 1000 µg/mL [1]: 20 mm; zone of inhibition at 1000 µg/mL [2]: 30 mm; zone of inhibition at 1000 µg/mL [3]: 45 mm; zone of inhibition at 1000 µg/mL [4, 8]: 43 mm; zone of inhibition at 1000 µg/mL [5]: 25 mm; zone of inhibition at 1000 µg/mL [6]: 24 mm; zone of inhibition at 1000 µg/mL [7]: 30 mm; zone of inhibition at 1000 µg/mL (Candida utilis IFO 0619): 40 mm

Q: What does the source list for `C[C@H]([C@](O)(Cn1cncn1)c1ccc(F)cc1F)S(=O)(=O)N1CCN(c2ccccc2)CC1` [Compound 23]?
A: ED50 (Candida albicans; po): 7.1 mg/kg; zone of inhibition at 1000 µg/mL [1]: 20 mm; zone of inhibition at 1000 µg/mL [2]: 22 mm; zone of inhibition at 1000 µg/mL [3]: 40 mm; zone of inhibition at 1000 µg/mL [4, 8]: 45 mm; zone of inhibition at 1000 µg/mL [5]: 25 mm; zone of inhibition at 1000 µg/mL [6]: 30 mm; zone of inhibition at 1000 µg/mL [7]: 40 mm; zone of inhibition at 1000 µg/mL (Candida utilis IFO 0619): 45 mm

Q: What does the source list for `C[C@@H](N(C)S(=O)(=O)CC(F)(F)F)[C@](O)(Cn1cncn1)c1ccc(F)cc1F` [Compound 54]?
A: ED50 (Candida albicans; po): 3.5 mg/kg; zone of inhibition at 1000 µg/mL [4, 9]: 40 mm

Q: Which results are given for `C[C@@H](NS(=O)(=O)CC(F)(F)F)[C@](O)(Cn1cncn1)c1ccc(F)cc1F` [Compound 55]?
A: ED50 (Candida albicans; po): 2 mg/kg; zone of inhibition at 1000 µg/mL [4, 9]: 35 mm

Q: For `C[C@H]([C@](O)(Cn1cncn1)c1ccc(F)cc1F)S(=O)(=O)NCc1ccccc1` [Compound 58, N-benzyl-[(2R,3R)-3-(2,4-difluorophenyl)-3-hydroxy-4-(1H-1,2,4-triazol-1-yl)-2-butane]sulfonamide], which ED50 (Candida albicans; po) is on record?
A: The ED50 was 8 mg/kg.

Q: What about the zone of inhibition at 1000 µg/mL [4, 9] of the same compound?
A: The zone of inhibition at 1000 µg/mL was 40 mm.

Q: `C[C@H]([C@](O)(Cn1cncn1)c1ccc(F)cc1F)S(=O)(=O)NC(c1ccccc1)c1ccccc1` [Compound 59, N-diphenylmethyl-[(2R,3R)-3-(2,4-difluorophenyl)-3-hydroxy-4-(1H-1,2,4-triazol-1-yl)-2-butane]sulfonamide] was tested. Which ED50 (Candida albicans; po) did it give?
A: Its ED50 is 11.3 mg/kg.

Q: What about the zone of inhibition at 1000 µg/mL [4, 9] of the same compound?
A: Its zone of inhibition at 1000 µg/mL is 30 mm.

Q: How did the ED50 (Candida albicans; po) turn out when `C[C@H]([C@](O)(Cn1cncn1)c1ccc(F)cc1F)S(=O)(=O)N(C)Cc1cccnc1` [Compound 64, N-(3-pyridylmethyl)-N-methyl-[(2R,3R)-3-(2,4-difluorophenyl)-3-hydroxy-4-(1H-1,2,4-triazol-1-yl)-2-butane]sulfonamide] was run?
A: The ED50 was 2.8 mg/kg.

Q: What about the zone of inhibition at 1000 µg/mL [4, 9] of the same compound?
A: The zone of inhibition at 1000 µg/mL was 40 mm.

Q: `C[C@H]([C@](O)(Cn1cncn1)c1ccc(F)cc1F)S(N)(=O)=O` [Compound 65, (2R,3R)-3-(2,4-difluorophenyl)-3-hydroxy-4-(1H-1,2,4-triazol-1-yl)-2-butanesulfonamide] was tested. Which ED50 (Candida albicans; po) did it give?
A: Its ED50 is 11.3 mg/kg.

Q: What about the zone of inhibition at 1000 µg/mL [4, 9] of the same compound?
A: The zone of inhibition at 1000 µg/mL was 30 mm.

Q: How did the ED50 (Candida albicans; po) turn out when `C[C@H]([C@](O)(Cn1cncn1)c1ccc(F)cc1F)S(=O)(=O)N1CCN(c2ccc(OCC(F)(F)F)cc2)CC1` [Compound 70, 4-[(2R,3R)-3-(2,4-difluorophenyl)-3-hydroxy-4-(1H-1,2,4-triazol-1-yl)-2-butanesulfonyl]-1-[4-(2,2,2-trifluoroethoxy)phenyl]piperazine] was run?
A: Its ED50 is 8 mg/kg.

Q: What about the zone of inhibition at 1000 µg/mL [4, 9] of the same compound?
A: The zone of inhibition at 1000 µg/mL was 42 mm.

Q: What does the source list for `C[C@H]([C@](O)(Cn1cncn1)c1ccc(F)cc1F)S(=O)(=O)N1CCN(c2ccc(F)cc2)CC1` [Compound 71, 4-[(2R,3R)-3-(2,4-difluorophenyl)-3-hydroxy-4-(1H-1,2,4-triazol-1-yl)-2-butanesulfonyl]-1(4-fluorophenyl)piperazine]?
A: ED50 (Candida albicans; po): 8 mg/kg; zone of inhibition at 1000 µg/mL [4, 9]: 47 mm

Q: Which results are given for `C[C@H]([C@](O)(Cn1cncn1)c1ccc(F)cc1F)S(=O)(=O)N1CCN(c2ccc(C(F)(F)F)cc2)CC1` [Compound 73, 4-[(2R,3R)-3-(2,4-difluorophenyl)-3-hydroxy-4-(1H-1,2,4-triazol-1-yl)-2-butanesulfonyl]-1-(4-trifluoromethylphenyl)piperazine]?
A: ED50 (Candida albicans; po): 6.4 mg/kg; zone of inhibition at 1000 µg/mL [4, 9]: 32 mm

Q: How did the ED50 (Candida albicans; po) turn out when `C[C@H]([C@](O)(Cn1cncn1)c1ccc(F)cc1F)S(=O)(=O)N(C)Cc1nccn1C` [Compound 75] was run?
A: The ED50 was 8 mg/kg.

Q: And the zone of inhibition at 1000 µg/mL [4, 9]?
A: The zone of inhibition at 1000 µg/mL was 34 mm.

Q: For `C[C@H]([C@](O)(Cn1cncn1)c1ccc(F)cc1F)S(=O)(=O)N(C)Cc1ccncc1` [Compound 76], which ED50 (Candida albicans; po) is on record?
A: Its ED50 is 8 mg/kg.

Q: And the zone of inhibition at 1000 µg/mL [4, 9]?
A: The zone of inhibition at 1000 µg/mL was 40 mm.

Q: What does the source list for `C[C@H]([C@](O)(Cn1cncn1)c1ccc(F)cc1F)S(=O)(=O)N(C)Cc1nccs1` [Compound 78]?
A: ED50 (Candida albicans; po): 8 mg/kg; zone of inhibition at 1000 µg/mL [4, 9]: 40 mm

Q: `C[C@H]([C@](O)(Cn1ccnc1)c1ccc(F)cc1F)S(=O)(=O)N(C)Cc1ccc(C(F)(F)F)cc1` [Compound 86, N-methyl-N-(4-trifluoromethylbenzyl)-[(2R,3R)-3-(2,4-difluorophenyl)-3-hydroxy-4-(1-imidazolyl)-2-butane]sulfonamide] was tested. Which ED50 (Candida albicans; po) did it give?
A: The ED50 was 8 mg/kg.

Q: What about the zone of inhibition at 1000 µg/mL [4, 9] of the same compound?
A: Its zone of inhibition at 1000 µg/mL is 35 mm.

Q: For `C[C@H]([C@](O)(Cn1cncn1)c1ccc(F)cc1F)S(=O)(=O)N1CCN(c2nc(Cl)ncc2F)CC1` [Compound 91, 1-[(2R,3R)-3-(2,4-difluorophenyl)-3-hydroxy-4-(1H-1,2,4-triazol-1-yl)-2-butanesulfonyl]-4-(2-chloro-5-fluoropyrimidin-4-yl)piperazine], which ED50 (Candida albicans; po) is on record?
A: The ED50 was 11.3 mg/kg.

Q: And the zone of inhibition at 1000 µg/mL [4, 9]?
A: The zone of inhibition at 1000 µg/mL was 50 mm.

Source: patent US5389663A, “1-(1h-1,2,4-triazole-yl)-2-propanol compounds” (Takeda Chemical Industries, Ltd., priority 1991, dated 1995)
